Test results from article PMC11779924 (Nature Communications, 2025).

What was measured:
[1] = tested on: hypertensive rats with blood clot defect (BCD); assay: Rat BCD model: immunofluorescent staining of CD73&Fak, Runx2, Alp; assay type: in vivo; conditions: BCgel vs Ctrl, n = 6
beagles = assay: Beagle BCD model: overall toxicity incl. cardiotoxicity and organ H&E
[2] = tested on: beagles with blood clot defect (heparin); design: species or system beagle; conditions: dog, in vivo
[3] = tested on: hypertensive rats with blood clot defect (BCD); assay type: in vivo, rat; conditions: micro-CT
healthy SD rats = conditions: subcutaneous implantation, n = 6
[4] = tested on: hypertensive rats with blood clot defect (BCD); assay: Rat incisor extraction BCD model: coagulation time; assay type: in vivo; conditions: treated immediately after tooth extraction, n = 12
[5] = tested on: beagles with blood clot defect (heparin); assay: Beagle tooth extraction BCD model: coagulation time; assay type: in vivo; conditions: treated immediately after tooth extraction, n = 7
BCD rats = conditions: rat, in vivo

## (RADA)4GSVLGYIQIR [BCgel]
[1]; one-month post-treatment
  increase in CD73+&Fak+ double positive cells: 15 fold
[1]; one-week post-treatment
  increase in CD73+&Fak+ double positive cells: 31 fold
beagles; BCgel for two months, n = 4
  immunotoxicity, hematotoxicity, hepatotoxicity, nephrotoxicity, cardiotoxicity: did not result in any observed immunotoxicity
beagles; five months after tooth extraction, n = 3
  physiological toxicity (hematotoxicity, hepatotoxicity, nephrotoxicity, cardiotoxicity): no signs of physiological toxicity
[2]
  elevation in Tb.N compared to the Ctrl group: 56%
  enhancement in BMD compared to the Ctrl group: 105%
  increase in BV/TV compared to the Ctrl group: 143%
  reduction in Tb.Sp compared to the Ctrl group: 60%
[3]; 0.5% BCgel vs gelform (Ctrl), n = 3
  osteogenic effects of mechanically unloaded BCgel: negligible osteogenic effects
[3]; 1 week post-treatment, n = 6
  decrease in Tb.Sp compared to the Ctrl group: 47%
  increase in BMD compared to the Ctrl group: 73%
  increase in BV/TV compared to the Ctrl group: 84%
Healthy SD rats
  hematological parameters: nor did they have any impact on hematological parameters
  hepatic or renal function: neither BCgel nor gelform induced any hepatic or renal abnormalities
[4]
  reduction in coagulation time compared to gelform: 55%
[5]
  reduction in coagulation time vs gelform (Ctrl): 69%
BCD rats
  increase in bone mineral density (BMD): 39%
  reduction in trabecular separation (Tb.Sp): 50%
